In experiment [1] the target is T1, Aurora A (Homo sapiens, UniProt O14965).
T1 construct: cell lysates from Jurkat cells (ATCC TIB-152) used; endogenous in cells; host or cells: Jurkat cells (ATCC TIB-152), treated with pervanadate
T1 sequence (O14965 1-403): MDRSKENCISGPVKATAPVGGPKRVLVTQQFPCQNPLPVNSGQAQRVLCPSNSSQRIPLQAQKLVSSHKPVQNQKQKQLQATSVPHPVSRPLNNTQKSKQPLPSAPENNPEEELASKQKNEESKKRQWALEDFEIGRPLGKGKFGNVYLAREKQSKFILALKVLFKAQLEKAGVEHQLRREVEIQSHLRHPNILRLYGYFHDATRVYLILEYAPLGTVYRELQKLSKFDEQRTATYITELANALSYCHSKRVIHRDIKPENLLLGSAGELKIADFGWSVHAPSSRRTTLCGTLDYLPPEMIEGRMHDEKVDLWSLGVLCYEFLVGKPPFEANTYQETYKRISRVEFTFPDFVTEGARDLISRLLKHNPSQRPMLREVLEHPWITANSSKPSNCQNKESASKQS
In words: Kinobeads assay, Aurora A. Format: binding. The following applies: for IC50: lysate of pervanadate-treated Jurkat cells, read-out: Inhibition values (IC50) Aur A. The method, then: (§1) The compounds of the present invention as described in the previous examples were tested in a Kinobeads™ assay as described for ZAP-70 (WO-A 2007/137867). Briefly, test compounds (at various concentrations) and the affinity matrix with the immobilized aminopyrido-pyrimidine ligand 24 were added to cell lysate aliquots and allowed to bind to the proteins in the lysate sample. After the incubation time the beads with captured proteins were separated from the lysate. Bound proteins were then eluted and the presence of JAK2 and JAK3 was detected and quantified using specific antibodies in a dot blot procedure and the Odyssey infrared detection system. Dose response curves for individual kinases were generated and IC50 values calculated. Kinobeads™ assays for ZAP-70 (WO-A 2007/137867) and for kinase selectivity profiling (WO-A 2006/134056) have been previously described.
(§2) The affinity matrix was washed two times with 15 mL of 1×DP buffer containing 0.2% NP40 (IGEPAL® CA-630, Sigma, #I3021) and then resuspended in 1×DP buffer containing 0.2% NP40 (3% beads slurry).
(§3) 5×DP buffer 250 mM Tris-HCl pH 7.4, 25% Glycerol, 7.5 mM MgCl2, 750 mM NaCl, 5 mM Na3VO4; filter the 5×DP buffer through a 0.22 μm filter and store in aliquots at −80° C. The 5×DP buffer is diluted with H2O to 1×DP buffer containing 1 mM DTT and 25 mM NaF.
(§4) Stock solutions of test compounds were prepared in DMSO. In a 96 well plate 30 μL solution of diluted test compounds at 5 mM in DMSO were prepared. Starting with this solution a 1:3 dilution series (9 steps) was prepared. For control experiments (no test compound) a buffer containing 2% DMSO was used.
(§5) Cell lysate (approximately 50 mg protein per plate) was thawed in a water bath at room temperature and then stored on ice. To the thawed cell lysate 1×DP 0.8% NP40 buffer containing protease inhibitors (1 tablet for 25 mL buffer; EDTA-free protease inhibitor cocktail; Roche Diagnostics 1873580) was added in order to reach a final protein concentration of 10 mg/mL total protein. The diluted cell lysate was stored on ice. Mixed Molt4/Ramos lysate was prepared by combining one volume of Molt4 lysate and two volumes of Ramos lysate (ratio 1:2).
(§6) To a 96 well filter plate (Multiscreen HTS, BV Filter Plates, Millipore #MSBVN1250) were added per well: 100 μL affinity matrix (3% beads slurry), 3 μL of compound solution, and 50 μL of diluted lysate. Plates were sealed and incubated for 3 hours in a cold room on a plate shaker (Heidolph tiramax 1000) at 750 rpm. Afterwards the plate was washed 3 times with 230 μL washing buffer (1×DP 0.4% NP40). The filter plate was placed on top of a collection 1 plate (Greiner bio-one, PP-microplate 96 well V-shape, 65120) and the beads were then eluted with 20 μL of sample buffer (100 mM Tris, pH 7.4, 4% SDS, 0.00025% bromophenol blue, 20% glycerol, 50 mM DTT). The eluate was frozen quickly at −80° C. and stored at −20° C.
(§7) The kinases in the eluates were detected and quantified by spotting on nitrocellulose membranes and using a first antibody directed against the kinase of interest and a fluorescently labelled secondary antibody (anti-rabbit IRDye™ antibody 800 (Licor, #926-32211). The Odyssey Infrared Imaging system from LI-COR Biosciences (Lincoln, Nebr., USA) was operated according to instructions provided by the manufacturer (Schutz-Geschwendener et al, 2004. Quantitative, two-color Western blot detection with infrared fluorescence. Published May 2004 by LI-COR Biosciences, www.licor.com).
(§8) After spotting of the eluates the nitrocellulose membrane (BioTrace NT; PALL, #BTNT30R) was first blocked by incubation with Odyssey blocking buffer (LICOR, 927-40000) for 1 hour at room temperature. Blocked membranes were then incubated for 16 hours at the temperature shown in Table 5 with the first antibody diluted in Odyssey blocking buffer (LICOR #927-40000). Afterwards the membrane was washed twice for 10 minutes with PBS buffer containing 0.2% Tween 20 at room temperature. […]

In experiment [2] the target is T2, Aurora B (Homo sapiens, UniProt Q96GD4).
T2 construct: cell lysates from Jurkat cells (ATCC TIB-152) used; endogenous in cells; host or cells: Jurkat cells (ATCC TIB-152), treated with pervanadate
T2 sequence (Q96GD4 whole entry): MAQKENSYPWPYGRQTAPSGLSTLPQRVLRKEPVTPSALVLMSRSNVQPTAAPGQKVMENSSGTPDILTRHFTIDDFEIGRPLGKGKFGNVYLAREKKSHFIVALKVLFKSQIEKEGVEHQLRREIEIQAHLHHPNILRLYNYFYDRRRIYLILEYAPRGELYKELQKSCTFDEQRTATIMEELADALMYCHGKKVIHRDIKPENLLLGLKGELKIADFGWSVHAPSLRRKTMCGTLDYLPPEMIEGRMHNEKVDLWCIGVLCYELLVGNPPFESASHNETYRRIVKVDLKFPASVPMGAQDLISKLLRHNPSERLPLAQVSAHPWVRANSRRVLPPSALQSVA
Put plainly: Kinobeads assay, Aurora B. Format: binding. Conditions: for IC50: lysate of pervanadate-treated Jurkat cells, read-out: Inhibition values (IC50) Aur B. The method, then: as §1, §2, §3, §4, §5, §6, §7, §8

The structures appear in SMILES notation.

`Cn1cc(Nc2ncc3cnn(Cc4cc(F)cc(N5CC6(COC6)C5)c4)c3n2)cn1` [Example 90, 1-(3-fluoro-5-(2-oxa-6-azaspiro[3.3]heptan-6-yl)benzyl)-N-(1-methyl-1H-pyrazol-4-yl)-1H-pyrazolo[3,4-d]pyrimidin-6-amine]: in experiment [1], the “JAK3/AurA Fold Selectivity” value is given as 10-50 Fold and the IC50 was ≥ 10000 nM. In experiment [2], the “JAK3/AurB Fold Selectivity” value is >50 Fold and the IC50 was in the range of 1000 to 10000 nM.

Regarding `Cn1cc(Nc2ncc3cnn(Cc4c(F)c(F)cc(N5CCOCC5)c4F)c3n2)cn1` [Example 17, N-(1-Methyl-1H-pyrazol-4-yl)-1-(2,3,6-trifluoro-5-morpholinobenzyl)-1H-pyrazolo[3,4-d]pyrimidin-6-amine], in experiment [1], the “JAK3/AurA Fold Selectivity” value was >50 Fold and the IC50 lay in the range of 1000 to 10000 nM. Moreover, in experiment [2], the “JAK3/AurB Fold Selectivity” value is listed as 10-50 Fold and the IC50 was in the range of 100 to 1000 nM.

For the molecule `Cn1cc(-c2cc(F)c(F)c(Cn3ncc4cnc(Nc5cnn(CCO)c5)nc43)c2)cn1` [Example 127, 2-(4-((1-(2,3-difluoro-5-(1-methyl-1H-pyrazol-4-yl)benzyl)-1H-pyrazolo[3,4-d]pyrimidin-6-yl)amino)-1H-pyrazol-1-yl)ethanol], in experiment [1], the “JAK3/AurA Fold Selectivity” value is listed as 10-50 Fold and the IC50 fell in the range of 100 to 1000 nM. Further, in experiment [2], the “JAK3/AurB Fold Selectivity” value is recorded as 10-50 Fold and the IC50 fell in the range of 100 to 1000 nM.

As for `CN(C)C(=O)CCn1cc(Nc2ncc3cnn(Cc4cccc(N5CCOCC5)c4)c3n2)cn1` [Example 16, N,N-Dimethyl-3-(4-((1-(3-morpholinobenzyl)-1H-pyrazolo[3,4-d]pyrimidin-6-yl)amino)-1H-pyrazol-1-yl)propanamide], in experiment [1], the “JAK3/AurA Fold Selectivity” value was 10-50 Fold and the IC50 is 100 to 1000 nM. In addition, in experiment [2], the “JAK3/AurB Fold Selectivity” value is on record as 10-50 Fold and the IC50 lay within 100 to 1000 nM.

As for `Cn1cc(Nc2ncc3cnn(Cc4cccc(N5CCOCC5)c4F)c3n2)cn1` [Example 21, 1-(2-Fluoro-3-morpholinobenzyl)-N-(1-methyl-1H-pyrazol-4-yl)-1H-pyrazolo[3,4-d]pyrimidin-6-amine], in experiment [1], the “JAK3/AurA Fold Selectivity” value is >50 Fold and the IC50 is 100 to 1000 nM. Moreover, in experiment [2], the “JAK3/AurB Fold Selectivity” value is >50 Fold and the IC50 was in the range of 1000 to 10000 nM.

Turning to `OCCn1cc(Nc2ncc3cnn(Cc4cc(F)cc(N5CCNCC5)c4)c3n2)cn1` [Example 93, 2-(4-((1-(3-fluoro-5-(piperazin-1-yl)benzyl)-1H-pyrazolo[3,4-d]pyrimidin-6-yl)amino)-1H-pyrazol-1-yl)ethanol], in experiment [1], the “JAK3/AurA Fold Selectivity” value was 10-50 Fold and the IC50 was 100 to 1000 nM. In experiment [2], the “JAK3/AurB Fold Selectivity” value is listed as 10-50 Fold and the IC50 was in the range of 100 to 1000 nM.

With `Cn1cc(Nc2ncc3cnn(Cc4cccc(N5CCOCC5)n4)c3n2)cn1` [Example 3, N-(1-Methyl-1H-pyrazol-4-yl)-1-((6-morpholinopyridin-2-yl)methyl)-1H-pyrazolo[3,4-d]pyrimidin-6-amine], in experiment [1], the “JAK3/AurA Fold Selectivity” value is reported as 10-50 Fold and the IC50 lay in the range of 100 to 1000 nM. Moreover, in experiment [2], the “JAK3/AurB Fold Selectivity” value is given as 10-50 Fold and the IC50 fell in the range of 100 to 1000 nM.

For the molecule `Cn1cc(Nc2ncc3cnn(Cc4cccc(N5CCC(F)(F)CC5)c4)c3n2)cn1` [Example 19, 1-(3-(4,4-Difluoropiperidin-1-yl)benzyl)-N-(1-methyl-1H-pyrazol-4-yl)-1H-pyrazolo[3,4-d]pyrimidin-6-amine], in experiment [1], the “JAK3/AurA Fold Selectivity” value was 10-50 Fold and the IC50 lay within 1000 to 10000 nM. In addition, in experiment [2], the “JAK3/AurB Fold Selectivity” value was 10-50 Fold and the IC50 was ≥ 10000 nM.

Take `Cn1cc(Nc2ncc3cnn(Cc4cccc(-c5cnn(C)c5)c4F)c3n2)cn1` [Example 123, 1-(2-fluoro-3-(1-methyl-1H-pyrazol-4-yl)benzyl)-N-(1-methyl-1H-pyrazol-4-yl)-1H-pyrazolo[3,4-d]pyrimidin-6-amine]: in experiment [1], the “JAK3/AurA Fold Selectivity” value is recorded as 10-50 Fold and the IC50 fell in the range of 1000 to 10000 nM. Also, in experiment [2], the “JAK3/AurB Fold Selectivity” value was >50 Fold and the IC50 lay within 1000 to 10000 nM.

For the molecule `NC(=O)CCn1cc(Nc2ncc3cnn(Cc4cccc(N5CCOCC5)c4)c3n2)cn1` [Example 14, 3-(4-((1-(3-Morpholinobenzyl)-1H-pyrazolo[3,4-d]pyrimidin-6-yl)amino)-1H-pyrazol-1-yl)propanamide], in experiment [1], the “JAK3/AurA Fold Selectivity” value is 10-50 Fold and the IC50 fell in the range of 100 to 1000 nM. Also, in experiment [2], the “JAK3/AurB Fold Selectivity” value is on record as 10-50 Fold and the IC50 lay in the range of 100 to 1000 nM.

For the molecule `CCn1cc(-c2cccc(Cn3ncc4cnc(Nc5cnn(C)c5)nc43)c2)cn1` [Example 116, 1-(3-(1-ethyl-1H-pyrazol-4-yl)benzyl)-N-(1-methyl-1H-pyrazol-4-yl)-1H-pyrazolo[3,4-d]pyrimidin-6-amine], in experiment [1], the “JAK3/AurA Fold Selectivity” value is 10-50 Fold and the IC50 is 100 to 1000 nM. In experiment [2], the “JAK3/AurB Fold Selectivity” value is reported as >50 Fold and the IC50 is 1000 to 10000 nM.

As to `O=C(CCn1cc(Nc2ncc3cnn(Cc4cccc(N5CCOCC5)c4)c3n2)cn1)NC1CC1` [Example 35, N-Cyclopropyl-3-(4-((1-(3-morpholinobenzyl)-1H-pyrazolo[3,4-d]pyrimidin-6-yl)amino)-1H-pyrazol-1-yl)propanamide], in experiment [1], the “JAK3/AurA Fold Selectivity” value is 10-50 Fold and the IC50 was 100 to 1000 nM. Further, in experiment [2], the “JAK3/AurB Fold Selectivity” value is 10-50 Fold and the IC50 lay within 1000 to 10000 nM.

Take `O=C1CCCN1CCCn1cc(Nc2ncc3cnn(Cc4cccc(N5CCOCC5)c4)c3n2)cn1` [Example 30, 1-(3-(4-((1-(3-Morpholinobenzyl)-1H-pyrazolo[3,4-d]pyrimidin-6-yl)amino)-1H-pyrazol-1-yl)propyl)pyrrolidin-2-one]: in experiment [1], the “JAK3/AurA Fold Selectivity” value is listed as 10-50 Fold and the IC50 was 100 to 1000 nM. In experiment [2], the “JAK3/AurB Fold Selectivity” value was >50 Fold and the IC50 fell in the range of 1000 to 10000 nM.

`Cn1cc(Nc2ncc3cnn(Cc4cccc(N5CCOCC5)c4Cl)c3n2)cn1` [Example 103, 1-(2-chloro-3-morpholinobenzyl)-N-(1-methyl-1H-pyrazol-4-yl)-1H-pyrazolo[3,4-d]pyrimidin-6-amine]: in experiment [1], the “JAK3/AurA Fold Selectivity” value is on record as 3-10 Fold and the IC50 is < 100 nM. Besides, in experiment [2], the “JAK3/AurB Fold Selectivity” value was 3-10 Fold and the IC50 was in the range of 100 to 1000 nM.

Consider `Cn1cc(Nc2ncc3cnn(Cc4cccc(C(=O)N5CCOCC5)c4)c3n2)cn1` [Example 6, (3-((6-((1-Methyl-1H-pyrazol-4-yl)amino)-1H-pyrazolo[3,4-d]pyrimidin-1-yl)methyl)phenyl)(morpholino)methanone], for which, in experiment [1], the “JAK3/AurA Fold Selectivity” value is listed as 10-50 Fold and the IC50 lay within 100 to 1000 nM. For the same molecule, in experiment [2], the “JAK3/AurB Fold Selectivity” value is reported as >50 Fold and the IC50 was 1000 to 10000 nM.

For orientation: IC50 means the point on the concentration scale where inhibition reaches its midpoint.

These data come from patent US9040545B2, “Heterocyclyl pyrazolopyrimidine analogues as selective JAK inhibitors” (Cellzome Limited, priority 2010, dated 2015).
